Source: patent publication US11051515B2, “3-acyl-benzamides and their use as herbicides” (Bayer Aktiengesellschaft, priority 2017, dated 2021)

Key:
[1] = test system: LOLRI; experiment: Pre-emergence action against LOLRI; type: in vivo, Lolium rigidum; settings: dosage 320 g/ha, scored visually after 3 weeks vs untreated controls
How it was run: (§1)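 Seeds sown in sandy loam in wood-fiber pots and covered with soil. Greenhouse growth; visual damage scored after 3 weeks versus untreated controls (100% = dead, 0% = like control).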

[2] = test system: ABUTH; experiment: Pre-emergence action against ABUTH; type: in vivo, Abutilon theophrasti; settings: pre-emergence, dosage 320 g/ha, scored visually after 3 weeks vs untreated controls
How it was run: as §1

[3] = test system: MATIN; experiment: Post-emergence action against MATIN; type: in vivo, Matricaria inodora; settings: post-emergence, dosage 80 g/ha, visual assessment about 3 weeks after treatment vs untreated controls
How it was run: (§2)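 Post-emergence foliar spray on greenhouse plants at the one-leaf stage, using wettable-powder or emulsion-concentrate formulations in water (600 to […], plus 0.2% wetting agent). Damage scored by eye roughly 3 weeks later against untreated plants: 0% = like control, 100% = dead.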

[4] = test system: ALOMY; experiment: Pre-emergence action against ALOMY; type: in vivo, Alopecurus myosuroides; settings: dosage 320 g/ha, pre-emergence, scored visually after 3 weeks vs untreated controls, 100% = plants have died, 0% = like control plants
How it was run: as §1

[5] = test system: VERPE; experiment: Post-emergence action against VERPE; type: in vivo, Veronica persica; settings: dosage 80 g/ha
How it was run: as §2

[6] = test system: ECHCG; experiment: Post-emergence action against ECHCG; type: in vivo, Echinochloa crus-galli; settings: post-emergence, dosage 80 g/ha, visual assessment about 3 weeks after treatment vs untreated controls
How it was run: as §2

[7] = test system: VERPE; experiment: Pre-emergence action against VERPE; type: in vivo, Veronica persica; settings: Dosage 320 g/ha, pre-emergence
How it was run: as §1

[8] = test system: MATIN; experiment: Pre-emergence action against MATIN; type: in vivo, Matricaria inodora; settings: Dosage 320 g/ha, pre-emergence
How it was run: as §1

[9] = test system: SETVI; experiment: Post-emergence action against SETVI; type: in vivo, Setaria viridis; settings: post-emergence, dosage 80 g/ha, visual assessment about 3 weeks after treatment vs untreated controls
How it was run: as §2

[10] = test system: STEME; experiment: Pre-emergence action against STEME; type: in vivo, Stellaria media; settings: Dosage 320 g/ha, pre-emergence
How it was run: as §1

[11] = test system: ABUTH; experiment: Post-emergence action against ABUTH; type: in vivo, Abutilon theophrasti; settings: post-emergence, dosage 80 g/ha, visual assessment about 3 weeks after treatment vs untreated controls
How it was run: as §2

[12] = test system: VIOTR; experiment: Pre-emergence action against VIOTR; type: in vivo, Viola tricolor; settings: Dosage 320 g/ha, pre-emergence
How it was run: as §1

[13] = test system: HORMU; experiment: Pre-emergence action against HORMU; type: in vivo, Hordeum murinum; settings: Dosage 320 g/ha
How it was run: as §1

[14] = test system: AVEFA; experiment: Post-emergence action against AVEFA; type: in vivo, Avena fatua; settings: post-emergence, dosage 80 g/ha, visual assessment about 3 weeks after treatment vs untreated controls
How it was run: as §2

[15] = test system: VIOTR; experiment: Post-emergence action against VIOTR; type: in vivo, Viola tricolor; settings: post-emergence, dosage 80 g/ha
How it was run: as §2

[16] = test system: SETVI; experiment: Pre-emergence action against SETVI; type: in vivo, Setaria viridis; settings: pre-emergence, dosage 320 g/ha, scored visually after 3 weeks vs untreated controls
How it was run: as §1

[17] = test system: PHBPU; experiment: Post-emergence action against PHBPU; type: in vivo, Pharbitis purpurea; settings: post-emergence, dosage 80 g/ha
How it was run: as §2

[18] = test system: POLCO; experiment: Pre-emergence action against POLCO; type: in vivo, Polygonum convolvulus; settings: Fallopia convolvulus, 504 h; Dosage 320 g/ha, pre-emergence
How it was run: as §1

[19] = test system: POLCO; experiment: Post-emergence action against POLCO; type: in vivo, Polygonum convolvulus; settings: post-emergence, dosage 80 g/ha
How it was run: as §2

[20] = test system: AVEFA; experiment: Pre-emergence action against AVEFA; type: in vivo, Avena fatua; settings: dosage 320 g/ha, scored visually after 3 weeks vs untreated controls
How it was run: as §1

[21] = test system: DIGSA; experiment: Post-emergence action against DIGSA; type: in vivo, Digitaria sanguinalis; settings: dosage 80 g/ha, visual assessment about 3 weeks after treatment vs untreated controls
Method: Seeds of monocotyledonous and dicotyledonous weed and crop plants are laid out in sandy loam soil in wood-fiber pots, covered with soil and cultivated in a greenhouse under good growth conditions. 2 to 3 weeks after sowing, the test plants are treated at the one-leaf stage. The compounds of the invention, formulated in the form of wettable powders (WP) or as emulsion concentrates (EC), are then sprayed onto the green parts of the plants in the form of an aqueous suspension or emulsion at a water application rate equating to […], with addition of 0.2% wetting agent. After the test plants have been left to stand in the greenhouse under optimal growth conditions for about 3 weeks, the action of the preparations is assessed visually in comparison to untreated controls (herbicidal action in percent (%): 100% activity=the plants have died, 0% activity=like control plants). […] At the same time, inventive compounds leave Gramineae crops such as barley, wheat, rye, millet/Sorghum, corn or rice virtually undamaged when applied post-emergence, even at high active ingredient dosages. In addition, some substances are also harmless to dicotyledonous crops such as soya, cotton, oilseed rape, sugar beet or potatoes. Some of the compounds according to the invention have high selectivity and are therefore suitable for controlling unwanted vegetation in agricultural crops by the post-emergence method. The data of Tables B18 to B34 below illustrate, in an exemplary manner, the […] herbicidal action of the compounds according to the invention, the herbicidal activity being stated in percent.

[22] = test system: PHBPU; experiment: Pre-emergence action against PHBPU; type: in vivo, Pharbitis purpurea; settings: Dosage 320 g/ha, pre-emergence
How it was run: as §1

[23] = test system: AMARE; experiment: Pre-emergence action against AMARE; type: in vivo, Amaranthus retroflexus; settings: pre-emergence, dosage 320 g/ha, scored visually after 3 weeks vs untreated controls
How it was run: as §1

[24] = test system: STEME; experiment: Post-emergence action against STEME; type: in vivo, Stellaria media; settings: post-emergence, dosage 80 g/ha
How it was run: as §2

[25] = test system: DIGSA; experiment: Pre-emergence action against DIGSA; type: in vivo, Digitaria sanguinalis; settings: dosage 320 g/ha, scored visually after 3 weeks vs untreated controls
How it was run: as §1

[26] = test system: AMARE; experiment: Post-emergence action against AMARE; type: in vivo, Amaranthus retroflexus; settings: post-emergence, dosage 80 g/ha, visual assessment about 3 weeks after treatment vs untreated controls
How it was run: as §2

[27] = test system: ECHCG; experiment: Pre-emergence action against ECHCG; type: in vivo, Echinochloa crus-galli; settings: pre-emergence, dosage 320 g/ha, scored visually after 3 weeks vs untreated controls
How it was run: as §1

[28] = test system: ALOMY; experiment: Post-emergence action against ALOMY; type: in vivo, Alopecurus myosuroides; settings: Dosage 80 g/ha, post-emergence
How it was run: as §2

Cn1nnnc1NC(=O)c1ccc(C(F)(F)F)c(C(=O)C(F)F)c1Cl [1-163]
100%: pest or weed control at 320 g/ha ([2]; Abutilon theophrasti, 504 h, read-out: Pre-emergence action against ABUTH (herbicidal activity)) | pest or weed control at 320 g/ha ([7]; Veronica persica, 504 h) | pest or weed control at 320 g/ha ([8]; Tripleurospermum inodorum, 504 h) | pest or weed control at 320 g/ha ([10]; Stellaria media, 504 h) | pest or weed control at 320 g/ha ([12]; Viola tricolor, 504 h) | pest or weed control at 320 g/ha ([16]; Setaria viridis, 504 h, read-out: SETVI (Table B8, pre-emergence herbicidal activity)) | pest or weed control at 80 g/ha ([19]; Fallopia convolvulus, 504 h) | pest or weed control at 320 g/ha ([20]; Avena fatua, 504 h, read-out: Pre-emergence action against AVEFA (herbicidal activity)) | Post-emergence action against DIGSA (herbicidal action in percent) [21] | pest or weed control at 320 g/ha ([23]; Amaranthus retroflexus, 504 h, read-out: Pre-emergence action against AMARE (herbicidal activity)) | pest or weed control at 80 g/ha ([24]; Stellaria media, 504 h) | Pre-emergence action against DIGSA (herbicidal activity) [25] | pest or weed control at 320 g/ha ([27]; Echinochloa crus-galli, 504 h, read-out: Pre-emergence action against ECHCG (herbicidal activity))
90%: pest or weed control at 320 g/ha ([1]; Lolium rigidum, 504 h, read-out: Pre-emergence action against LOLRI (herbicidal activity)) | pest or weed control at 80 g/ha ([3]; Tripleurospermum inodorum, 504 h, read-out: Post-emergence action against MATIN (herbicidal action in percent)) | pest or weed control at 320 g/ha ([4]; Alopecurus myosuroides, 504 h, read-out: Pre-emergence action against ALOMY (herbicidal activity in percent)) | pest or weed control at 80 g/ha ([5]; Veronica persica, 504 h) | pest or weed control at 80 g/ha ([6]; Echinochloa crus-galli, 504 h, read-out: Post-emergence action against ECHCG (herbicidal action in percent)) | pest or weed control at 80 g/ha ([11]; Abutilon theophrasti, 504 h, read-out: Post-emergence action against ABUTH (herbicidal action in percent)) | pest or weed control at 320 g/ha ([13]; Hordeum murinum, 504 h) | pest or weed control at 80 g/ha ([14]; Avena fatua, 504 h, read-out: Post-emergence action against AVEFA (herbicidal action in percent)) | pest or weed control at 80 g/ha ([15]; Viola tricolor, 504 h) | pest or weed control at 80 g/ha ([17]; Ipomoea purpurea, 504 h) | pest or weed control at 320 g/ha [18] | pest or weed control at 80 g/ha ([26]; Amaranthus retroflexus, 504 h, read-out: Post-emergence action against AMARE (herbicidal action in percent))
80%: pest or weed control at 80 g/ha ([9]; Setaria viridis, 504 h, read-out: Post-emergence action against SETVI (herbicidal action in percent)) | pest or weed control at 320 g/ha ([22]; Ipomoea purpurea, 504 h)

CSc1c(C(=O)Nc2nnnn2C)ccc(C(F)(F)F)c1C(=O)C1CCC1 [1-284]
100%: Pre-emergence action against ABUTH (herbicidal activity) [2] | Post-emergence action against MATIN (herbicidal action in percent) [3] | Post-emergence action against ECHCG (herbicidal action in percent) [6] | Pre-emergence action against VERPE [7] | Pre-emergence action against MATIN [8] | Pre-emergence action against STEME [10] | Post-emergence action against ABUTH (herbicidal action in percent) [11] | SETVI (Table B8, pre-emergence herbicidal activity) [16] | Pre-emergence action against AMARE (herbicidal activity) [23] | Pre-emergence action against DIGSA (herbicidal activity) [25] | Post-emergence action against AMARE (herbicidal action in percent) [26] | Pre-emergence action against ECHCG (herbicidal activity) [27]
90%: Pre-emergence action against LOLRI (herbicidal activity) [1] | Pre-emergence action against ALOMY (herbicidal activity in percent) [4] | Pre-emergence action against VIOTR [12] | Pre-emergence action against AVEFA (herbicidal activity) [20] | Post-emergence action against DIGSA (herbicidal action in percent) [21]
100: Post-emergence action against VIOTR [15] | Post-emergence action against STEME [24]
90: Post-emergence action against VERPE [5] | Post-emergence action against PHBPU [17]
80%: Pre-emergence action against HORMU [13] | Post-emergence action against AVEFA (herbicidal action in percent) [14] | Pre-emergence action against PHBPU [22]

CCCC(=O)c1c(C(F)(F)F)ccc(C(=O)Nc2nnnn2CC)c1C [2-16]
80: Post-emergence action against VERPE [5] | Post-emergence action against POLCO [19]
80%: Post-emergence action against ALOMY [28] | Pre-emergence action against HORMU [13]
100%: Pre-emergence action against ABUTH (herbicidal activity) [2] | Post-emergence action against MATIN (herbicidal action in percent) [3] | Pre-emergence action against VERPE [7] | Post-emergence action against ABUTH (herbicidal action in percent) [11] | Pre-emergence action against AMARE (herbicidal activity) [23] | Pre-emergence action against DIGSA (herbicidal activity) [25] | Post-emergence action against AMARE (herbicidal action in percent) [26] | Pre-emergence action against ECHCG (herbicidal activity) [27]
100: Post-emergence action against VIOTR [15] | Post-emergence action against PHBPU [17] | Post-emergence action against STEME [24]
90%: Pre-emergence action against LOLRI (herbicidal activity) [1] | Pre-emergence action against ALOMY (herbicidal activity in percent) [4] | Post-emergence action against ECHCG (herbicidal action in percent) [6] | Pre-emergence action against MATIN [8] | Post-emergence action against SETVI (herbicidal action in percent) [9] | Pre-emergence action against STEME [10] | Pre-emergence action against VIOTR [12] | Post-emergence action against AVEFA (herbicidal action in percent) [14] | SETVI (Table B8, pre-emergence herbicidal activity) [16] | Pre-emergence action against AVEFA (herbicidal activity) [20] | Post-emergence action against DIGSA (herbicidal action in percent) [21] | Pre-emergence action against PHBPU [22]
